The record followed here is PMC3492795 (International Journal of Biological Sciences, 2012).

Structures are written as SMILES.

In the assay the target is T1, LXRβ (Homo sapiens, UniProt P55055).
T1 sequence (P55055 222-460 limits assumed): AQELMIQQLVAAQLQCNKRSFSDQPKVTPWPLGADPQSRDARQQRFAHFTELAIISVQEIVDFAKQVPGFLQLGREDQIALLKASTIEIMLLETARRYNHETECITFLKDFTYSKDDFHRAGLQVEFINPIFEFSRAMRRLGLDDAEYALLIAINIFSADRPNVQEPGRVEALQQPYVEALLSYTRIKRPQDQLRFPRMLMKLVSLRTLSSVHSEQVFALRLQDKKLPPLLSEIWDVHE
The experiment in a line: SPR. The class given is binding.

As usually defined, the Kd is the equilibrium constant for the complex coming apart. Read a low Kd as tighter binding. As for `O=C(O)c1cc(O)c2c(c1)C(=O)c1cccc(O)c1C2=O` [RH, 4,5-dihydroxyanthraquinone-2-carboxylic acid], the Kd worked out at 32 µM.
